Among the test systems are COLO 205 colon; LOX IMVI melanoma; OVCAR-8 ovarian; UO-31 renal; SF-268 CNS; SK-OV-3 ovarian; A498 renal; NCI/ADR-RES ovarian; M14 melanoma; DU-145 prostate.
Common to all, as to assay: DTP human tumour cell line panel, 48 h

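Exposure lasted 48 hours, with cells grown in 96-well plates and compounds tested at five concentrations. Abbreviation: GI50, concentration required for 50% inhibition of growth. TGI marks complete inhibition of growth.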 A value given as a limit tells only on which side of the number the result lay.

Consider `OCC1OC(O)C(N=Cc2ccc3c(c2)OCO3)C(O)C1O` (centres undefined), for which the concentration for total growth inhibition (TGI) with COLO 205 colon, in the assay on LOX IMVI melanoma, with OVCAR-8 ovarian, in the assay with UO-31 renal, in the assay on SF-268 CNS and in the assay on SK-OV-3 ovarian was above 100 µM throughout. Besides, the TGI in the assay with A498 renal, in the assay on NCI/ADR-RES ovarian, in the assay with M14 melanoma and in the assay on DU-145 prostate was above 100 µM each time.
In the case of `CC(=O)O[C@H]1C(=O)[C@@]2(C)[C@H]([C@H](OC(=O)c3ccccc3)[C@]3(O)C[C@H](OC(=O)[C@H](OC(=O)CCC(=O)OC4CCC(S/N=C(N)/N=C(\N)N(C)C)CC4)[C@@H](NC(=O)c4ccccc4)c4ccccc4)C(C)=C1C3(C)C)[C@]1(OC(C)=O)CO[C@@H]1C[C@@H]2O` (some centres undefined), the GI50 is 0.00952 µM in the assay on COLO 205 colon; 0.00748 µM in the assay on LOX IMVI melanoma; 0.0221 µM in the assay with OVCAR-8 ovarian; 0.619 µM with UO-31 renal; 0.0212 µM in the assay on SF-268 CNS; 0.0144 µM in the assay with SK-OV-3 ovarian. The GI50 with A498 renal is 0.0148 µM; in the assay on NCI/ADR-RES ovarian, 1.82 µM; in the assay with DU-145 prostate, 0.0135 µM. Moreover, the TGI with COLO 205 colon was 0.0406 µM; with LOX IMVI melanoma it was above 50 µM; with OVCAR-8 ovarian it was above 50 µM; in the assay on UO-31 renal it was above 50 µM; in the assay with SF-268 CNS it was above 50 µM; with SK-OV-3 ovarian, above 50 µM. Also, the total growth inhibition concentration (TGI) is above 50 µM in the assay with A498 renal, above 24.4 µM with NCI/ADR-RES ovarian and above 50 µM in the assay with DU-145 prostate.
As for `COc1cc(-c2ccc(-[n+]3nc(-c4ccc([N+](=O)[O-])cc4)nn3-c3ccc([N+](=O)[O-])cc3)c(OC)c2)ccc1-[n+]1nc(-c2ccc([N+](=O)[O-])cc2)nn1-c1ccc([N+](=O)[O-])cc1`, the GI50 is 0.347 µM in the assay on LOX IMVI melanoma; 12.9 µM with OVCAR-8 ovarian; 6.28 µM with UO-31 renal; 1.66 µM with SF-268 CNS; 9.08 µM in the assay on SK-OV-3 ovarian; 2.99 µM in the assay with A498 renal. Besides, the results for the GI50 in the assay on NCI/ADR-RES ovarian, in the assay with M14 melanoma and in the assay on DU-145 prostate were 26.9 µM, 14.9 µM and 2.9 µM, respectively. In addition, the TGI is 10.1 µM with LOX IMVI melanoma; above 71.5 µM in the assay with OVCAR-8 ovarian; 27.8 µM in the assay on UO-31 renal; 5.38 µM with SF-268 CNS; 66.3 µM in the assay with SK-OV-3 ovarian; 13.9 µM in the assay with A498 renal. Besides, the TGI is above 100 µM in the assay on NCI/ADR-RES ovarian, 67.2 µM in the assay with M14 melanoma and 9.29 µM in the assay on DU-145 prostate.
For `O=C(Nc1cccc(-c2nc3ccccc3[nH]2)c1)c1cccc(NC(=O)c2ccco2)c1`, the GI50 with COLO 205 colon was 3.49 µM; in the assay on LOX IMVI melanoma, 1.93 µM; in the assay on OVCAR-8 ovarian, 2.18 µM; with UO-31 renal, 3.24 µM; in the assay with SF-268 CNS it was 1.99 µM; with SK-OV-3 ovarian it was 2.35 µM. Also, the GI50 in the assay with A498 renal was 4.33 µM; with NCI/ADR-RES ovarian, 7.92 µM; in the assay on DU-145 prostate, 1.76 µM. Moreover, the TGI in the assay on COLO 205 colon worked out at 10.6 µM; in the assay on LOX IMVI melanoma it was 3.88 µM; in the assay with OVCAR-8 ovarian, 5.14 µM; with UO-31 renal it was 11.8 µM; with SF-268 CNS, 3.78 µM; in the assay with SK-OV-3 ovarian, 4.42 µM. Besides, the TGI in the assay on A498 renal was 18.3 µM; in the assay with NCI/ADR-RES ovarian, 66 µM; in the assay with DU-145 prostate, 3.15 µM.
For the compound `N#C/C(=C\c1ccc(Cl)cc1)n1nnc2cc(F)c(F)cc21`, the GI50 is 2.18 µM in the assay on COLO 205 colon; 1.57 µM with LOX IMVI melanoma; 3.27 µM with OVCAR-8 ovarian; 1.55 µM in the assay on UO-31 renal; 1.98 µM in the assay with SF-268 CNS; 1.28 µM in the assay on A498 renal. Moreover, the GI50 in the assay with NCI/ADR-RES ovarian was 2.36 µM; in the assay with M14 melanoma, 1.9 µM; in the assay with DU-145 prostate it was 1.69 µM. Further, the TGI in the assay on COLO 205 colon was 4.83 µM; in the assay with LOX IMVI melanoma, 2.99 µM; in the assay on OVCAR-8 ovarian, above 100 µM; in the assay on UO-31 renal, 2.88 µM; with SF-268 CNS, 4.45 µM; with A498 renal it was 2.66 µM. Moreover, the values for the total growth inhibition concentration (TGI) in the assay on NCI/ADR-RES ovarian, with M14 melanoma and in the assay with DU-145 prostate were 7.7 µM, 4.39 µM and 3.11 µM, respectively.
Turning to `Cc1cccc(Oc2ccc(Nc3ncnc4ccc(NC(=O)CN5CCN(C)CC5)cc34)cc2Cl)c1`, the GI50 was 1.7 µM with LOX IMVI melanoma; 2.11 µM in the assay on OVCAR-8 ovarian; 1.1 µM in the assay with UO-31 renal; 1.46 µM in the assay with SF-268 CNS; 1.06 µM in the assay with A498 renal; 1.73 µM in the assay with NCI/ADR-RES ovarian. Besides, the figures for the GI50 with M14 melanoma and in the assay on DU-145 prostate were 1.72 µM and 1.18 µM, respectively. Also, the TGI stood at 3.18 µM in the assay with LOX IMVI melanoma; 5.68 µM with OVCAR-8 ovarian; 2.35 µM with UO-31 renal; 3.16 µM in the assay with SF-268 CNS; 2.28 µM in the assay on A498 renal; 4.24 µM with NCI/ADR-RES ovarian. The figures for the total growth inhibition concentration (TGI) in the assay on M14 melanoma and in the assay with DU-145 prostate were 3.38 µM and 2.57 µM, respectively.
In the case of `COc1cc2c(cc1OCCCCCN1CCN(c3cc(=O)oc4c(C)c(OC)ccc34)CC1)N=C[C@@H]1CCCN1C2=O`, the GI50 in the assay with COLO 205 colon is below 0.01 µM; in the assay with OVCAR-8 ovarian, 0.018 µM; with UO-31 renal, 0.014 µM; in the assay on SF-268 CNS, below 0.01 µM; with SK-OV-3 ovarian, 0.0435 µM; in the assay with A498 renal, below 0.0127 µM. Besides, the GI50 is 1.55 µM in the assay on NCI/ADR-RES ovarian, 0.0101 µM with M14 melanoma and below 0.01 µM in the assay on DU-145 prostate. Moreover, the TGI in the assay on COLO 205 colon came to 0.0849 µM; with OVCAR-8 ovarian, 5.15 µM; in the assay on UO-31 renal, 0.0383 µM; with SF-268 CNS, 0.318 µM; with SK-OV-3 ovarian, 12.8 µM; in the assay on A498 renal it was 0.0289 µM. For the same compound, the figures for the TGI in the assay with NCI/ADR-RES ovarian, in the assay on M14 melanoma and in the assay on DU-145 prostate were 8.25 µM, 0.0225 µM and 5.36 µM, respectively.
As to `CCC(=O)Nc1ccc2c(c1)CN1C(=O)c3ccccc3C1=N2`, the GI50 with COLO 205 colon, in the assay on LOX IMVI melanoma, in the assay with OVCAR-8 ovarian, in the assay on UO-31 renal, in the assay on SF-268 CNS and in the assay on SK-OV-3 ovarian was above 100 µM in each case. Besides, the GI50 with NCI/ADR-RES ovarian, in the assay with M14 melanoma and in the assay on DU-145 prostate was above 100 µM each time. Besides, the TGI in the assay on COLO 205 colon, in the assay with LOX IMVI melanoma, in the assay on OVCAR-8 ovarian, with UO-31 renal, in the assay on SF-268 CNS and in the assay with SK-OV-3 ovarian was above 100 µM throughout. In addition, the TGI in the assay on NCI/ADR-RES ovarian, in the assay with M14 melanoma and in the assay with DU-145 prostate was above 100 µM in each case.

The values above are taken from PubChem BioAssay (NCI).
